How the values were obtained:
[1] = target: T1, BCRP (Homo sapiens, UniProt Q9UNQ0); design: host or cells: MCF-7 cells overexpressing BCRP; conditions: previous study; cited from earlier work
T1 sequence (Q9UNQ0 1-655): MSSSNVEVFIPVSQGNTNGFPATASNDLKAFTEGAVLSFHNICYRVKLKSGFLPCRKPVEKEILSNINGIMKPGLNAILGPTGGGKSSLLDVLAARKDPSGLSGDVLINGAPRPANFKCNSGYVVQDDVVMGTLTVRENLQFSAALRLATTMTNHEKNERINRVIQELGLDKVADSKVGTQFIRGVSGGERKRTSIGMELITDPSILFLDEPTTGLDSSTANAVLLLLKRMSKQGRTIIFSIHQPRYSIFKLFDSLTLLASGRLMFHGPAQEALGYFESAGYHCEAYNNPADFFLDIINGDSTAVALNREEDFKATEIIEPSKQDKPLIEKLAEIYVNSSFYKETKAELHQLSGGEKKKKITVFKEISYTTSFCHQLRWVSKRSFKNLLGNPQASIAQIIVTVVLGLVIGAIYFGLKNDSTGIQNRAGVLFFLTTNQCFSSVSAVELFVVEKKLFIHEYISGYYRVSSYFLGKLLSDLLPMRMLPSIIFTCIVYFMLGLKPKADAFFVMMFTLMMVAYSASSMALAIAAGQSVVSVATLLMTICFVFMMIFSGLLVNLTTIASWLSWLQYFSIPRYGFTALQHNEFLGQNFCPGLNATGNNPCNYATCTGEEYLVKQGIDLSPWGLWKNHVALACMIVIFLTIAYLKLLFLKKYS

[2] = target: T1, BCRP; assay: bidirectional transport assay across hCMEC/D3 cell monolayer with or without Ko143; conditions: for transport by BCRP (conclusion of bidirectional transport assay): ER ≥ 1.5 and significantly reduced by Ko143; for Papp A→B at 2 h, 21 μM / Papp A→B at 2 h, 42 μM / Papp B→A at 2 h, 21 μM / Papp B→A at 2 h, 42 μM / efflux ratio at 2 h / efflux ratio at 2 h, 21 μM / efflux ratio at 2 h, 42 μM / Papp A→B at 2 h, 5 μM / Papp B→A at 2 h, 5 μM / Papp A→B at 2 h, 25 µM / Papp A→B at 2 h, […] µM / Papp B→A at 2 h, 25 µM / Papp B→A at 2 h, […] µM / Papp A→B at 2 h, 15 µM / Papp A→B at 2 h, 60 µM / Papp B→A at 2 h, 15 µM / Papp B→A at 2 h, 60 µM / efflux ratio at 2 h, 15 µM / efflux ratio at 2 h, 60 µM: human; for efflux ratio at 2 h: pH 7.4, Efflux ratio (ER) without inhibitor
Experimental: For transport assays, hCMEC/D3 cells were seeded on collagen type I‐coated Transwell inserts (polycarbonate 12‐well, pore size […]) (cat. no. CLS3460; Corning, NY, USA) at 80% confluency and cultured as described in section 2.5. In brief, the drug was dissolved in Hanks’ balanced salt solution supplemented with 10 mM HEPES, 1 mM Na‐Pyruvate, pH 7.4 at 37°C (transport buffer). Initially, both sides of the chamber were washed with 1X PBS and the assay was performed with pre‐warmed transport buffer. 0.5 ml or 1.5 ml of the drug solution, with or without BCRP‐specific inhibitor Ko143 (1 μM) was added to either the apical side or basolateral side of the monolayer, respectively, and fresh transport buffer was added to the opposite side. Aliquots of 100 μl samples were taken from the opposite sides every 30 min for 2 h, and the same amount of fresh transport buffer was added to the same chamber after each sampling. […] Concentrations of ASMs were evaluated by HPLC or LC/MS. Apparent permeability (Papp) is defined as the transport rate of ASM and efflux ratio (ER) was calculated as the ratio of Papp in the basolateral‐to‐apical (Papp(B→A)) direction to the Papp in the apical‐to‐basolateral (Papp(A→B)) direction. The samples were stored at −20°C until analysis. […] Fluorescence detection of lucifer yellow (excitation at 430 nm, and emission at 535 nm) was carried out with Infinite 200 PRO NanoQuant (Tecan, Zurich, Switzerland). […] All transport assays were performed in triplicate.
The calculation for apparent permeability coefficient, Papp, was performed as described before. Papp=dQr/dt/A×C0 where dQr/dt is the cumulative amount in the receiver side vs time in μM/s
A is the area of the cell monolayer
C0 is the initial concentration of the dosing solution (μM).
And, Efflux ratio=Papp(B−to−A)/Papp(A−to−B)

[3] = target: T1, BCRP; assay: competitive substrate efflux assay (BODIPY-prazosin accumulation) in hCMEC/D3 cells; assay type: cell-based
Experimental: The potential of ASMs to compete with a known fluorescent substrate of BCRP, BPZ in hCMEC/D3 cells was examined using a competitive substrate efflux assay that has previously been used in various studies. The interaction of CBZ, DCLB, OXC, TPM, and LEVI with BCRP was evaluated. Initially, hCMEC/D3 were seeded in 12‐well plates (cat. no. 150628, Nunc, Thermo Fisher Scientific, MA, USA) at 70‐80% confluency for 24 h. In this study, Ko143 was used for BCRP inhibition. The cultured cells were incubated at 37°C for half an hour in media containing BPZ with either the test ASMs or Ko143. Cells were washed with chilled 1X PBS three times and again incubated at 37°C for 1 h 30 min in BPZ‐free media with or without Ko143. Cells were washed three times with ice‐cold 1X PBS to terminate the assay. Cell lysis was performed by adding 1% triton X‐100, followed by incubating the cells for 15 min at 37°C. 20 µl of cell lysate was placed in 384‐well black assay plates for fluorescence detection (excitation at 488 nm; emission at 530 nm) to Infinite 200 PRO NanoQuant (Tecan, Zurich, Switzerland). The rest of the cell lysate was used for determining protein levels using the BCA protein estimation method to normalize the observed fluorescence intensity with total protein yield. The data were shown as a fold increment in intracellular fluorescence of BPZ relative to the control.

[4] = design: method as in Johannessen, 2004; Patsalos, 2008; Lee, 2016; conditions: patients with epilepsy; ref Johannessen, 2004; Patsalos, 2008; Lee, 2016; cited from earlier work
[5] = target: T1, BCRP; assay: vanadate-sensitive BCRP ATPase assay (membrane vesicles from MCF-7 cells overexpressing BCRP); assay type: biochemical; design: host or cells: MCF-7 cells overexpressing BCRP
Experimental: To assess the interaction between ASMs and BCRP, a vanadate‐sensitive ATPase assay was performed as per the manufacturer's instructions manual. […] After 10 min, 1x developer solution was added and kept for 2 min. To stop the reaction, 100 µL blocker solution was added and incubated for 30 min. at 37°C. The optical densities were measured at 620 nm using an Infinite 200 PRO NanoQuant (Tecan, Zurich, Switzerland) plate reader. 1 μM Ko143 was used as a positive control for BCRP inhibition. Ko143 was used at a concentration that is known to inhibit BCRP efficiently. The results were expressed as vanadate‐sensitive ATPase activity that is based on the difference in inorganic phosphate released between samples with and without vanadate. This will evaluate the ability of the test ASM to stimulate BCRP's baseline ATPase activity.

[6] = at all the tested concentrations, hCMEC/D3 monolayer
[7] = 5 μM, hCMEC/D3 monolayer, 1 μM Ko143
[8] = 10 μM, hCMEC/D3 monolayer, 1 μM Ko143

## NC(=O)N1c2ccccc2C=Cc2ccccc21 [CBZ, carbamazepine]
[1]
  stimulation of BCRP ATPase activity: no significant stimulation
[2]; hCMEC/D3 monolayer
  transport by BCRP (conclusion of bidirectional transport assay): not
[2]; pH 7.4
  Papp A→B at 2 h, 21 μM: 33.7 nm/s
  Papp A→B at 2 h, 42 μM: 33.7 nm/s
  Papp B→A at 2 h, 21 μM: 42.7 nm/s
  Papp B→A at 2 h, 42 μM: 40.4 nm/s
[2]; [6]
  efflux ratio at 2 h: < 1.5
[2]; pH 7.4, Efflux ratio (ER), hCMEC/D3 without inhibitor Ko143, 21 μM, hCMEC/D3 monolayer
  efflux ratio at 2 h, 21 μM: 1.23
[2]; pH 7.4, Efflux ratio (ER), hCMEC/D3 without inhibitor Ko143, 42 μM, hCMEC/D3 monolayer
  efflux ratio at 2 h, 42 μM: 1.18
[2]; pH 7.4, with Ko143 1 μM
  Papp A→B at 2 h, 21 μM: 47.2 nm/s
  Papp A→B at 2 h, 42 μM: 38.2 nm/s
  Papp B→A at 2 h, 21 μM: 30.3 nm/s
  Papp B→A at 2 h, 42 μM: 42.7 nm/s
[2]; pH 7.4, with Ko143 1 μM, Efflux ratio (ER), hCMEC/D3 with inhibitor Ko143, 21 μM, hCMEC/D3 monolayer, 1 μM Ko143
  efflux ratio at 2 h, 21 μM: 0.98
[2]; pH 7.4, with Ko143 1 μM, Efflux ratio (ER), hCMEC/D3 with inhibitor Ko143, 42 μM, hCMEC/D3 monolayer, 1 μM Ko143
  efflux ratio at 2 h, 42 μM: 1.12
[3]
  intracellular accumulation of BPZ in hCMEC/D3 cells: did not affect
[4]
  Therapeutic plasma concentration range: 15 to 45 µM

## O=C1CC(=O)N(c2ccccc2)c2cc(Cl)ccc2N1 [DCLB, N‐desmethyl clobazam]
[2]; 5 μM, hCMEC/D3 monolayer
  Efflux ratio (ER), hCMEC/D3 without inhibitor Ko143: 2
  Papp A-->B, hCMEC/D3 without inhibitor Ko143: 28.3 nm/s
  Papp B-->A, hCMEC/D3 without inhibitor Ko143: 56.6 nm/s
[2]; [7]
  Efflux ratio (ER), hCMEC/D3 with inhibitor Ko143: ~1
  Papp A-->B, hCMEC/D3 with inhibitor Ko143: 56.6 nm/s
  Papp B-->A, hCMEC/D3 with inhibitor Ko143: 56.6 nm/s
[2]; 5 μM, hCMEC/D3 monolayer, listed as N‐desmethyl clobazam
  Efflux ratio (ER), hCMEC/D3 without inhibitor Ko143: 2.0
[2]; 10 μM, hCMEC/D3 monolayer
  Efflux ratio (ER), hCMEC/D3 without inhibitor Ko143: 2
  Papp A-->B, hCMEC/D3 without inhibitor Ko143: 28.3 nm/s
  Papp B-->A, hCMEC/D3 without inhibitor Ko143: 56.6 nm/s
[2]; [8]
  Efflux ratio (ER), hCMEC/D3 with inhibitor Ko143: ~1
  Papp A-->B, hCMEC/D3 with inhibitor Ko143: 28.3 nm/s
  Papp B-->A, hCMEC/D3 with inhibitor Ko143: 28.3 nm/s
[2]; 10 μM, hCMEC/D3 monolayer, listed as N‐desmethyl clobazam
  Efflux ratio (ER), hCMEC/D3 without inhibitor Ko143: 2.0
[2]; [6]
  Efflux ratio (ER) without inhibitor: above 1.5
[2]; at all the tested concentrations, hCMEC/D3 monolayer, 1 μM Ko143
  Efflux ratio (ER) in the presence of Ko143: ~1
[2]; hCMEC/D3 monolayer
  transport by BCRP (conclusion of bidirectional transport assay): transports
[3]; 1 and 10 µM
  BPZ accumulation in hCMEC/D3 cells: significantly increased
[5]; […] µM
  stimulation of BCRP ATPase activity (activation assay): significantly stimulated
[4]
  Therapeutic plasma concentration range: 1 to 10 µM

## CC[C@@H](C(N)=O)N1CCCC1=O [LEVI, levetiracetam]
[1]
  stimulation of BCRP ATPase activity: no significant stimulation
[2]; hCMEC/D3 monolayer
  transport by BCRP (conclusion of bidirectional transport assay): not
[2]; hCMEC/D3 monolayer, data not shown
  directional transport: did not show any directional transport
[2]; [6]
  efflux ratio at 2 h: < 1.5
[3]
  intracellular accumulation of BPZ in hCMEC/D3 cells: did not affect
[4]
  Therapeutic plasma concentration range: 35 to 120 µM

## O=C1c2c(O)ccc(O)c2C(=O)c2c(NCCNCCO)ccc(NCCNCCO)c21 [MXR, mitoxantrone]
[2]; pH 7.4
  Papp A→B at 2 h, 5 μM: 51 nm/s
  Papp B→A at 2 h, 5 μM: 127 nm/s
[2]; pH 7.4, with Ko143 1 μM
  Papp A→B at 2 h, 5 μM: 102 nm/s
  Papp B→A at 2 h, 5 μM: 106 nm/s

## NC(=O)N1c2ccccc2CC(=O)c2ccccc21 [OXC, oxcarbazepine]
[2]; hCMEC/D3 monolayer
  transport by BCRP (conclusion of bidirectional transport assay): transports
[2]; pH 7.4
  Papp A→B at 2 h, 25 µM: 26.4 nm/s
  Papp A→B at 2 h, […] µM: 165 nm/s
  Papp B→A at 2 h, 25 µM: 47.2 nm/s
  Papp B→A at 2 h, […] µM: 394 nm/s
[2]; pH 7.4, with Ko143 1 μM
  Papp A→B at 2 h, 25 µM: 32.1 nm/s
  Papp A→B at 2 h, […] µM: 1400 nm/s
  Papp B→A at 2 h, 25 µM: 35.9 nm/s
  Papp B→A at 2 h, […] µM: 1690 nm/s
[3]; […] and […] µM
  BPZ accumulation in hCMEC/D3 cells: significantly increased
[5]; 40 µM
  stimulation of BCRP ATPase activity (activation assay): significantly stimulated

## CC1(C)O[C@@H]2[C@@H](CO[C@@]3(COS(N)(=O)=O)OC(C)(C)O[C@@H]23)O1 [TPM, topiramate]
[1]
  stimulation of BCRP ATPase activity: no significant stimulation
[2]; hCMEC/D3 monolayer
  transport by BCRP (conclusion of bidirectional transport assay): not
[2]; pH 7.4
  Papp A→B at 2 h, 15 µM: 7.1 nm/s
  Papp A→B at 2 h, 60 µM: 200 nm/s
  Papp B→A at 2 h, 15 µM: 7.1 nm/s
  Papp B→A at 2 h, 60 µM: 255 nm/s
[2]; [6]
  efflux ratio at 2 h: < 1.5
[2]; pH 7.4, Efflux ratio (ER), hCMEC/D3 without inhibitor Ko143, 15 μM, hCMEC/D3 monolayer
  efflux ratio at 2 h, 15 µM: 1.06
[2]; pH 7.4, Efflux ratio (ER), hCMEC/D3 without inhibitor Ko143, 60 μM, hCMEC/D3 monolayer
  efflux ratio at 2 h, 60 µM: 1.17
[2]; pH 7.4, with Ko143 1 μM
  Papp A→B at 2 h, 15 µM: 123 nm/s
  Papp A→B at 2 h, 60 µM: 1590 nm/s
  Papp B→A at 2 h, 15 µM: 142 nm/s
  Papp B→A at 2 h, 60 µM: 1900 nm/s
[2]; pH 7.4, with Ko143 1 µM, Efflux ratio (ER), hCMEC/D3 with inhibitor Ko143, 15 μM, hCMEC/D3 monolayer, 1 μM Ko143
  efflux ratio at 2 h, 15 µM: 1.16
[2]; pH 7.4, with Ko143 1 µM, Efflux ratio (ER), hCMEC/D3 with inhibitor Ko143, 60 μM, hCMEC/D3 monolayer, 1 μM Ko143
  efflux ratio at 2 h, 60 µM: 1.13
[3]
  intracellular accumulation of BPZ in hCMEC/D3 cells: did not affect
[4]
  Therapeutic plasma concentration range: 15 to 60 µM
